# In US20060115458A1, “Material for repairing biological tissues, product for repairing biological tissues, and method of manufacturing material for repairing biological tissues” (OLYMPUS CORPORATION, priority 2004, published 2006):
# Tests used:
# [1] = test system: normal human osteoblast NHOst; assay: Differentiation rate of osteoblasts cultured with metal salts (calcium content per well); assay type: cell-based; conditions: as concentration became higher; 2 weeks culture; calcium content of control group = 100%; FIG. 2
# Method: (§1) As a medium, α-MEM medium containing β-sodium glycerophosphate and fetal calf serum was used.
# (§2) The cell culturing method was such that about 1×10^4 osteoblasts were seeded in each well in a collagen type I coated 24 well microplate. Then after 24 hours the product was replaced with 1 ml of medium containing a prescribed concentration of metal salts, after which it was further replaced with a medium containing the same concentration of metal salts three times per week, and the culturing was performed for 2 weeks.
# The differentiation rate was measured as follows. 1 ml of 0.1N hydrochloric acid was added into each well and left at room temperature for 15 hours to obtain the hydrochloric acid extract of each well. Using calcium C-Test Wako (Wako Pure Chemical Industries, Ltd.), 10 μl of hydrochloric acid extract was added with 1 ml of 0.88 M monoethanolamine buffer (pH 11.0), then 100 μl of 0.63 mM ortho-cresolphthalein complexone and 100 μl of 69 mM 8-quinolinol. After 15 minutes of reaction at room temperature, the absorbancy at 570 nm was measured to determine the calcium content per well. The differentiation rate of the respective experimental groups was obtained assuming that the calcium content of the control group was 100%.
# [2] = test system: normal human osteoblast NHOst; assay: Proliferation rate of osteoblasts cultured with metal salts (TetraColor ONE); assay type: cell-based; conditions: as concentration became higher; 2 weeks culture; control group = 100%; FIG. 1
# Method: as §1, §2
# The proliferation rate was measured as follows. 1 ml of medium containing 20 μl/ml of living cell measuring reagent, TetraColor ONE (Seikagaku Corporation) was added into each well. After 2 hours of culturing, the absorbency at 450 nm (control wavelength was 600 nm) was measured. The proliferation rate of the respective experimental groups was obtained assuming that the absorbancy of the control group was 100%.
compound,measurement,setting,value
[Cl][Nb]([Cl])([Cl])([Cl])[Cl] [niobium pentachloride],differentiation rate of osteoblasts,[1],increased the differentiation rate
same,proliferation rate of osteoblasts,[2],increased the proliferation rate
